Experimental data: patent publication US10000791B2, “Measurement method for human pancreatic lipase activity” (ASAHI KASEI PHARMA CORPORATION, priority 2013, dated 2018)

Tested on: human pancreatic lipase
Test: lipase activity measured in control, normal and heparin-administered samples with each reagent (1,2-dioleoyl glycerol, UV method; Liquitech Lipase Color II for verification)
Format: biochemical
Set-up: lipase activity relative to (1) comparative example NaDCA (Table 1): concentration or dose not given beside the values
Details: for lipase activity (Table 1): NaDCA pH 8.15, other bile salts pH 7.0; for lipase activity relative to (1) comparative example NaDCA (Table 1): pH 7.0
Description: A mixture of the substrate stock solution and the R-1 in a proportion of 1:2 was used as a first reagent. The R-2 was directly used as a second reagent. As a sample, pooled serum or a control sample (a control containing a pancreatic lipase) was used. A proportion in amount among the sample, the first reagent and the second reagent was set as sample:first reagent:second reagent of 0.01 ml:0.18 ml:0.06 ml. The sample was added to the first reagent, the resultant mixture was heated at 37° C. for 5 minutes, the second reagent was added thereto, and a change rate of an absorbance at 340 nm based on reduced NADP was obtained at 37° C. from 3 minutes after the addition of the second reagent to 4 minutes after the addition, and then, the lipase activity was calculated by using a molecular extinction coefficient of 6300 L/mol·cm of the reduced NADP. Besides, as a sample blank, saline was used instead of a sample, an absorbance was measured by using the reagent for sample blank obtained by removing MGLPII from the second reagent, and a difference between the thus measured two values was defined as an enzyme activity value. For the measurement, Hitachi automatic analyzer Model H7170 or H7080 was used.
Similarly to Example 1, a mixture of the substrate stock solution and the R-1 in a proportion of 1:2 was used as a first reagent. Except for this, the measurement was performed in the same manner as in Example 1.
A commercially available reagent for a resorufin colorimetric method, “Liquitech Lipase Color II” manufactured by Roche Diagnostics using 1,2-O-dilauryl-rac-glycerol-3-glutaric acid-(6-methylresorufin)ester (DGGR), which is regarded not to be influenced by a non-pancreatic lipase, such as a lipoprotein lipase or a hepatic lipase, appearing in blood due to administration of heparin, was used for verifying the effect of the present example. “Liquitech Lipase Color II” was used in accordance with the package insert, and a special calibrator was used for calculating the enzyme activity. […] The concentration of each bile acid used in the present example was set to be the same as that in the comparative example.
As samples, a control, non-heparin-administered samples (normal samples), and heparin-administered samples were used.
The compositions of the reagents were the same as those of Example 2. As a comparative example, NaDCA (in a concentration of 40 mmol/L in the R-1) was used as the bile acid, and the reaction solution was adjusted to pH 8.15 (by the Bicine buffer) for measuring a heparin-administered sample.
It is noted that CRM-001b containing a human pancreatic recombinant lipase dissolved not in distilled water but in a pooled serum was used as the calibrator to calculate the lipase activity.
As a bile acid of the present example and a reference example, NaTDCA was selected, and the pH dependence with the pH of a reaction solution changed in a range of 6.2 to 7.6 was examined. It is noted that a case of pH 7.6 was used as the reference example. An MES buffer was used for adjusting pH to 6.2 and 6.4, and the BES buffer was used for adjusting the other pHs. As samples, (six) control samples (controls each containing a pancreatic lipase) and (nine) heparin-administered samples were used. As a comparative example, NaDCA (in a concentration of 40 mmol/L in the R-1) was used as the bile acid, and a reaction solution having pH 8.15 (the Bicine buffer) was used. Besides, “Liquitech Lipase Color II” manufactured by Roche Diagnostics was used for verifying the effect of the present example.

With `C[C@H](CCC(=O)NCCS(=O)(=O)[O-])[C@H]1CC[C@H]2[C@@H]3CC[C@@H]4C[C@H](O)CC[C@]4(C)[C@H]3C[C@H](O)[C@]12C.[Na+]` [NaTDCA, sodium taurodeoxycholate] the “lipase activity (Table 1)” value (Normal sample 1) was 43.4 U/L, the “lipase activity relative to (1) comparative example NaDCA (Table 1)” value (Normal sample 1) was 111.1% and the “lipase activity (Table 1)” value (Normal sample 2) was 96.4 U/L. The “lipase activity relative to (1) comparative example NaDCA (Table 1)” value (Normal sample 2) was 101.4%, the “lipase activity (Table 1)” value (Normal sample 3) was 50.7 U/L and the “lipase activity relative to (1) comparative example NaDCA (Table 1)” value (Normal sample 3) was 108.7%. For the same compound, the “lipase activity (Table 1)” value (Normal sample 4) was 44.5 U/L, the “lipase activity relative to (1) comparative example NaDCA (Table 1)” value (Normal sample 4) was 102.3% and the “lipase activity (Table 1)” value (Normal sample 5) was 31.7 U/L. For the same compound, the “lipase activity relative to (1) comparative example NaDCA (Table 1)” value (Normal sample 5) was 77.8%, the “lipase activity (Table 1)” value (sample Heparin 1) was 30.1 U/L and the “lipase activity relative to (1) comparative example NaDCA (Table 1)” value (sample Heparin 1) was 39.2%. For the same compound, the “lipase activity (Table 1)” value (sample Heparin 2) was 44.2 U/L, the “lipase activity relative to (1) comparative example NaDCA (Table 1)” value (sample Heparin 2) was 50.9% and the “lipase activity (Table 1)” value (sample Heparin 3) was 37.9 U/L. The “lipase activity relative to (1) comparative example NaDCA (Table 1)” value (sample Heparin 3) was 33.6%, the “lipase activity (Table 1)” value (sample Heparin 4) was 28.9 U/L and the “lipase activity relative to (1) comparative example NaDCA (Table 1)” value (sample Heparin 4) was 28.5%. For the same compound, the “lipase activity (Table 1)” value (sample Heparin 5) was 30.1 U/L, the “lipase activity relative to (1) comparative example NaDCA (Table 1)” value (sample Heparin 5) was 44.0% and the “lipase activity (Table 1)” value (sample Heparin 6) was 30.1 U/L. The “lipase activity relative to (1) comparative example NaDCA (Table 1)” value (sample Heparin 6) was 43.4%, the “lipase activity (Table 1)” value (sample Heparin 7) was 50.4 U/L and the “lipase activity relative to (1) comparative example NaDCA (Table 1)” value (sample Heparin 7) was 36.4%. The “lipase activity (Table 1)” value (sample Heparin 8) was 54.7 U/L, the “lipase activity relative to (1) comparative example NaDCA (Table 1)” value (sample Heparin 8) was 43.4% and the “lipase activity (Table 1)” value (sample Heparin 9) was 82.4 U/L. The “lipase activity relative to (1) comparative example NaDCA (Table 1)” value (sample Heparin 9) was 48.8%, the “lipase activity (Table 3)” value (sample Heparin 21, pH 6.2) was 35.9 U/L and the “lipase activity (Table 3)” value (sample Heparin 21, pH 6.4) was 37.9 U/L. The “lipase activity (Table 3)” value (sample Heparin 21, pH 6.6) was 40.9 U/L, the “lipase activity (Table 3)” value (sample Heparin 21, pH 6.9) was 48.6 U/L and the “lipase activity (Table 3)” value (sample Heparin 21, pH 7.2) was 47.6 U/L. For the same compound, the “lipase activity (Table 3)” value (sample Heparin 21, pH 7.4) was 44.5 U/L, the “lipase activity (Table 3)” value (sample Heparin 21, pH 7.6) was 34.7 U/L and the “lipase activity (Table 3)” value (sample Heparin 22, pH 6.2) was 39.7 U/L. For the same compound, the “lipase activity (Table 3)” value (sample Heparin 22, pH 6.4) was 41.7 U/L, the “lipase activity (Table 3)” value (sample Heparin 22, pH 6.6) was 45.5 U/L and the “lipase activity (Table 3)” value (sample Heparin 22, pH 6.9) was 53.6 U/L. For the same compound, the “lipase activity (Table 3)” value (sample Heparin 22, pH 7.2) was 52.6 U/L, the “lipase activity (Table 3)” value (sample Heparin 22, pH 7.4) was 49.2 U/L and the “lipase activity (Table 3)” value (sample Heparin 22, pH 7.6) was 38.3 U/L. The “lipase activity (Table 3)” value (sample Heparin 23, pH 6.2) was 61.0 U/L, the “lipase activity (Table 3)” value (sample Heparin 23, pH 6.4) was 63.0 U/L and the “lipase activity (Table 3)” value (sample Heparin 23, pH 6.6) was 71.4 U/L. For the same compound, the “lipase activity (Table 3)” value (sample Heparin 23, pH 6.9) was 81.7 U/L, the “lipase activity (Table 3)” value (sample Heparin 23, pH 7.2) was 80.5 U/L and the “lipase activity (Table 3)” value (sample Heparin 23, pH 7.4) was 75.8 U/L. For the same compound, the “lipase activity (Table 3)” value (sample Heparin 23, pH 7.6) was 58.6 U/L, the “lipase activity (Table 3)” value (sample Heparin 24, pH 6.2) was 44.9 U/L and the “lipase activity (Table 3)” value (sample Heparin 24, pH 6.4) was 46.9 U/L. The “lipase activity (Table 3)” value (sample Heparin 24, pH 6.6) was 51.8 U/L, the “lipase activity (Table 3)” value (sample Heparin 24, pH 6.9) was 60.4 U/L and the “lipase activity (Table 3)” value (sample Heparin 24, pH 7.2) was 59.4 U/L. For the same compound, the “lipase activity (Table 3)” value (sample Heparin 24, pH 7.4) was 55.7 U/L, the “lipase activity (Table 3)” value (sample Heparin 24, pH 7.6) was 43.2 U/L and the “lipase activity (Table 3)” value (sample Heparin 25, pH 6.2) was 38.0 U/L. For the same compound, the “lipase activity (Table 3)” value (sample Heparin 25, pH 6.4) was 40.0 U/L, the “lipase activity (Table 3)” value (sample Heparin 25, pH 6.6) was 43.5 U/L and the “lipase activity (Table 3)” value (sample Heparin 25, pH 6.9) was 51.4 U/L. The “lipase activity (Table 3)” value (sample Heparin 25, pH 7.2) was 50.4 U/L, the “lipase activity (Table 3)” value (sample Heparin 25, pH 7.4) was 47.1 U/L and the “lipase activity (Table 3)” value (sample Heparin 25, pH 7.6) was 36.7 U/L. The “lipase activity (Table 1)” value (sample PRECINORM) was 52.1 U/L, the “lipase activity (Table 3)” value (sample PRECINORM, pH 6.2) was 46.8 U/L and the “lipase activity (Table 3)” value (sample PRECINORM, pH 6.4) was 50.0 U/L. For the same compound, the “lipase activity (Table 3)” value (sample PRECINORM, pH 6.6) was 52.6 U/L, the “lipase activity (Table 3)” value (sample PRECINORM, pH 6.9) was 67.1 U/L and the “lipase activity relative to (1) comparative example NaDCA (Table 1)” value (sample PRECINORM) was 102.1%. For the same compound, the “lipase activity (Table 3)” value (sample PRECINORM, pH 7.2) was 59.5 U/L, the “lipase activity (Table 3)” value (sample PRECINORM, pH 7.4) was 57.1 U/L and the “lipase activity (Table 3)” value (sample PRECINORM, pH 7.6) was 52.0 U/L. For the same compound, the “lipase activity (Table 1)” value (sample PRECIPATH) was 134.6 U/L, the “lipase activity (Table 3)” value (sample PRECIPATH, pH 6.2) was 110.7 U/L and the “lipase activity (Table 3)” value (sample PRECIPATH, pH 6.4) was 109.5 U/L. For the same compound, the “lipase activity (Table 3)” value (sample PRECIPATH, pH 6.6) was 140.3 U/L, the “lipase activity (Table 3)” value (sample PRECIPATH, pH 6.9) was 157.3 U/L and the “lipase activity relative to (1) comparative example NaDCA (Table 1)” value (sample PRECIPATH) was 105.2%. For the same compound, the “lipase activity (Table 3)” value (sample PRECIPATH, pH 7.2) was 159.2 U/L, the “lipase activity (Table 3)” value (sample PRECIPATH, pH 7.4) was 152.7 U/L and the “lipase activity (Table 3)” value (sample PRECIPATH, pH 7.6) was 110.7 U/L. The “lipase activity (Table 3)” value (sample Pool 1, pH 6.2) was 42.1 U/L, the “lipase activity (Table 3)” value (sample Pool 1, pH 6.4) was 44.6 U/L and the “lipase activity (Table 3)” value (sample Pool 1, pH 6.6) was 45.2 U/L. For the same compound, the “lipase activity (Table 3)” value (sample Pool 1, pH 6.9) was 53.0 U/L, the “lipase activity (Table 3)” value (sample Pool 1, pH 7.2) was 52.4 U/L and the “lipase activity (Table 3)” value (sample Pool 1, pH 7.4) was 45.4 U/L. For the same compound, the “lipase activity (Table 3)” value (sample Pool 1, pH 7.6) was 39.1 U/L, the “lipase activity (Table 3)” value (sample Pool 2, pH 6.2) was 22.8 U/L and the “lipase activity (Table 3)” value (sample Pool 2, pH 6.4) was 24.8 U/L. For the same compound, the “lipase activity (Table 3)” value (sample Pool 2, pH 6.6) was 23.6 U/L, the “lipase activity (Table 3)” value (sample Pool 2, pH 6.9) was 28.0 U/L and the “lipase activity (Table 3)” value (sample Pool 2, pH 7.2) was 28.2 U/L. The “lipase activity (Table 3)” value (sample Pool 2, pH 7.4) was 27.0 U/L, the “lipase activity (Table 3)” value (sample Pool 2, pH 7.6) was 18.3 U/L and the “lipase activity (Table 3)” value (sample Seraclear, pH 6.2) was 23.7 U/L. For the same compound, the “lipase activity (Table 3)” value (sample Seraclear, pH 6.4) was 25.4 U/L, the “lipase activity (Table 3)” value (sample Seraclear, pH 6.6) was 28.6 U/L and the “lipase activity (Table 3)” value (sample Seraclear, pH 6.9) was 31.7 U/L. For the same compound, the “lipase activity (Table 3)” value (sample Seraclear, pH 7.2) was 33.8 U/L, the “lipase activity (Table 3)” value (sample Seraclear, pH 7.4) was 31.4 U/L and the “lipase activity (Table 3)” value (sample Seraclear, pH 7.6) was 20.2 U/L.
